According to patent publication US20220259279A1, “ALGINATE-BASED MICROCAPSULATION FOR THE DELIVERY OF ALPHA-CGRP IN CARDIOVASCULAR DISEASES” (University of South Carolina, priority 2019, published 2022):

Tested on: rat H9C2 cells
Assay: trypan-blue cell viability assay
Type: cell-based
Details: 1 μM and 5 μM, 7 days, vs control-untreated cells
Method: Two different cardiac cell lines, rat H9C2 cells and mouse HL-1 cells, and two different assays, trypan-blue cell viability assay and calcium dye fluorescent based assay, were used to determine the cytotoxicity of prepared alginate-αCGRP microcapsules.
Trypan-blue cell viability assay: Rat cardiac myoblast cell line, H9C2 cells, was cultured in complete culture medium containing Dulbecco's Modified Eagles' Medium (DMEM) supplemented with 10% fetal bovine serum (FBS), 4.5 gm/liter D-glucose, 1.5 gm/liter sodium bicarbonate, and antibiotic solution of 100 unit/ml penicillin and 100 μg/ml streptomycin. […] The viability of H9C2 cells in presence or absence of alginate-αCGRP microcapsules was determined by trypan blue assay. […] After 7 days of treatment, cells were trypsinized and counted by hemocytometer using trypan-blue exclusion method (Sigma) according to manufacturer's instructions. […]
Trypan-blue cell viability assay: The rat cardiac H9C2 cells were grown at 37° C. in a humidified incubator with 5% CO2 in complete culture medium (containing DMEM supplemented with 10% fetal bovine serum, FBS, 4.5 gm/liter D-glucose, and 1× penicillin/streptomycin). The viability of H9C2 cells in presence of alginate-α-CGRP microcapsules was determined by trypan-blue assay (Sigma). […] After 7 days of treatment, cells were trypsinized and counted by hemocytometer using trypan-blue exclusion method.

SMILES: CC(C)C[C@H](NC(=O)CNC(=O)[C@H](C)NC(=O)[C@H](CC(C)C)NC(=O)[C@H](CCCNC(=N)N)NC(=O)[C@H](Cc1c[nH]cn1)NC(=O)[C@@H](NC(=O)[C@@H](NC(=O)[C@@H]1CSSC[C@H](NC(=O)[C@@H](N)CO)C(=O)N[C@@H](CC(N)=O)C(=O)N[C@@H]([C@@H](C)O)C(=O)N[C@@H](C)C(=O)N[C@@H]([C@@H](C)O)C(=O)N1)C(C)C)[C@@H](C)O)C(=O)N[C@@H](CC(C)C)C(=O)N[C@@H](CO)C(=O)N[C@@H](CCCNC(=N)N)C(=O)N[C@@H](CO)C(=O)NCC(=O)NCC(=O)N[C@H](C(=O)N[C@H](C(=O)N[C@@H](CCCCN)C(=O)N[C@@H](CC(=O)O)C(=O)N[C@@H](CC(N)=O)C(=O)N[C@@H](Cc1ccccc1)C(=O)N[C@H](C(=O)N1CCC[C@H]1C(=O)N[C@H](C(=O)N[C@@H](CC(N)=O)C(=O)N[C@H](C(=O)NCC(=O)N[C@@H](CO)C(=O)N[C@@H](CCC(=O)O)C(=O)N[C@@H](C)C(=O)N[C@@H](Cc1ccccc1)C(N)=O)C(C)C)[C@@H](C)O)C(C)C)C(C)C)C(C)C [α-CGRP-alone]
- viability of H9C2 cells (live cells, trypan blue): not significantly different
